In ChEMBL document CHEMBL5236641, “Persistent challenges in the development of an mGlu7 PAM in vivo tool compound: The discovery of VU6046980” (Bioorg Med Chem Lett, 2023):
The source made the active and inactive calls. The calls are words filed in the database; no cut-off is given here.

Key:
[1] = biological target: T1, Metabotropic glutamate receptor 8 (Homo sapiens, UniProt O00222); test: Positive allosteric modulation of mGluR8 (unknown origin)
[2] = biological target: Metabotropic glutamate receptor 7 (Rattus norvegicus, UniProt P35400); test: Positive allosteric modulation of rat mGluR7
[3] = Unbound brain-to-plasma concentration ratio in rat; format: ADME
[4] = (§1) Positive allosteric modulation of rat mGluR8
[5] = species: Rattus norvegicus; test: as §1
[6] = Unbound fraction in mouse brain; format: ADME, tissue-based
[7] = biological target: Sigma non-opioid intracellular receptor 1 (Homo sapiens) (UniProt Q99720); test: Inhibition of human sigma-1 receptor at 10 uM relative to control
[8] = Unbound fraction in mouse plasma; format: ADME, cell-free
[9] = biological target: T2, Metabotropic glutamate receptor 1 (Homo sapiens, UniProt Q13255); test: Positive allosteric modulation of human mGluR1
[10] = biological target: T1, Metabotropic glutamate receptor 8; test: Positive allosteric modulation of human mGluR8
[11] = Unbound fraction in rat plasma; format: ADME, cell-free
[12] = biological target: T3, Metabotropic glutamate receptor 2 (Homo sapiens, UniProt Q14416); test: Positive allosteric modulation of human mGluR2
[13] = biological target: T4, Metabotropic glutamate receptor 3 (Homo sapiens, UniProt Q14832); test: Positive allosteric modulation of human mGluR3
[14] = biological target: T5, Metabotropic glutamate receptor 5 (Homo sapiens, UniProt P41594); test: Positive allosteric modulation of human mGluR5
[15] = test system: Mus musculus; test: Effect on locomotor response in wild type mouse assessed as decrease in distance travelled in an open field at 30 mg/kg, ip measured over 60 mins; format: functional, organism-based
[16] = Unbound fraction in rat brain; format: ADME, tissue-based
[17] = test system: Mus musculus; test: Anxiolytic activity in anxiety induced wild type mouse model assessed as reduction in marbles burying at 30 mg/kg; format: functional, organism-based
[18] = test system: Mus musculus; test: Effect on locomotor response in Grm7 knockout mouse assessed as decrease in distance travelled in an open field at 30 mg/kg, ip; format: functional, organism-based
[19] = biological target: Metabotropic glutamate receptor 4 (Homo sapiens, UniProt Q14833); test: Positive allosteric modulation of human mGluR4
[20] = species: Rattus norvegicus; test: Positive allosteric modulation of rat mGluR8 in presence of L-AP4 Max relative to control; conditions: filed as positive allosteric modulator
[21] = biological target: T5, Metabotropic glutamate receptor 5; test: Positive allosteric modulation of mGluR5 (unknown origin)
[22] = biological target: T2, Metabotropic glutamate receptor 1; test: Positive allosteric modulation of mGluR1 (unknown origin)
[23] = biological target: T4, Metabotropic glutamate receptor 3; test: Positive allosteric modulation of mGluR3 (unknown origin)
[24] = biological target: T3, Metabotropic glutamate receptor 2; test: Positive allosteric modulation of mGluR2 (unknown origin)

T1 sequence (O00222 whole entry): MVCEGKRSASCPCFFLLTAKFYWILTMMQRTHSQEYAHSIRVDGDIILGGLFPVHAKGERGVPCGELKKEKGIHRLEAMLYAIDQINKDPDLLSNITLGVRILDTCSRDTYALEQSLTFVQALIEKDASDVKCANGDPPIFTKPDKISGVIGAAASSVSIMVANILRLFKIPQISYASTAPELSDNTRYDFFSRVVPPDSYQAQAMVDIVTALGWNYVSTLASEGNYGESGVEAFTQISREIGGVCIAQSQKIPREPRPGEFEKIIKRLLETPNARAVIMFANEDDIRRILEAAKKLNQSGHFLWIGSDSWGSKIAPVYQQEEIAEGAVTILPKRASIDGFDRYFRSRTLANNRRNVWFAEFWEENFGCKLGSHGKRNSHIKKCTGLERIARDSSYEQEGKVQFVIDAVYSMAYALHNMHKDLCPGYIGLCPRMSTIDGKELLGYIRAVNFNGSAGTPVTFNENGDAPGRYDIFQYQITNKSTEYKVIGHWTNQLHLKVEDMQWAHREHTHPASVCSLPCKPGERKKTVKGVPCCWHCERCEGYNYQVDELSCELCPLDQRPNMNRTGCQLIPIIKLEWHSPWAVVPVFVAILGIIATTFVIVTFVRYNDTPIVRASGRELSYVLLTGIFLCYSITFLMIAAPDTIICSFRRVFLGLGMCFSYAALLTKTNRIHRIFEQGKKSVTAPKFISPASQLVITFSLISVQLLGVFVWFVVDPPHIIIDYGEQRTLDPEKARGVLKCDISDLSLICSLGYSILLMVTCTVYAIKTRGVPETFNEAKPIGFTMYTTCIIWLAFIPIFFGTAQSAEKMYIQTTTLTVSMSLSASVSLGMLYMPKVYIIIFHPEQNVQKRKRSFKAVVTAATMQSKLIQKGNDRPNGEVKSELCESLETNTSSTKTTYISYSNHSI
Metabotropic glutamate receptor 7, sequence (P35400 whole entry): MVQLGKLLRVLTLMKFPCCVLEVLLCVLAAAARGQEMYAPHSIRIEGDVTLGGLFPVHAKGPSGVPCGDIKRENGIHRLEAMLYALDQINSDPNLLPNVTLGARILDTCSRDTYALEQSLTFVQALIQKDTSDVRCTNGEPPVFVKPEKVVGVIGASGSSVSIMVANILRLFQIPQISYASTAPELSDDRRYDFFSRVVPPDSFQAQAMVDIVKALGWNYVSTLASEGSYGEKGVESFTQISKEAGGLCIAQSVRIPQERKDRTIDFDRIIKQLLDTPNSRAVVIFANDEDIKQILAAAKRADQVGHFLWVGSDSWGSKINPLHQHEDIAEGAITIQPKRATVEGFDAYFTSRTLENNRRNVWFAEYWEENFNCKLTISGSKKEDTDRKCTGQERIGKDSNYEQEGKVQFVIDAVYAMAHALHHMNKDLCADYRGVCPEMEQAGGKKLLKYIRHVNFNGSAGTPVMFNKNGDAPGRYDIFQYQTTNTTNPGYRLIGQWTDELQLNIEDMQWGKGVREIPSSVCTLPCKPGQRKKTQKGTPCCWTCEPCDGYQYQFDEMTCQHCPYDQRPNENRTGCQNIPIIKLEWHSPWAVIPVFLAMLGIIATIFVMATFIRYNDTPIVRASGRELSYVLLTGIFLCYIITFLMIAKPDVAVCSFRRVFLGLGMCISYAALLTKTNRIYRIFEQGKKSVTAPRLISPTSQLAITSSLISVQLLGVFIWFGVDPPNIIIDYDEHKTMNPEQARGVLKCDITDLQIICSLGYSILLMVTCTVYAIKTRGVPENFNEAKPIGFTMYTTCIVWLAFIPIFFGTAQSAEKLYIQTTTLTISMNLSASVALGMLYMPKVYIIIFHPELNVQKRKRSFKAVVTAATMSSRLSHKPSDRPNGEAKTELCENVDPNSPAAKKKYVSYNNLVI
T4 sequence (Q14832 whole entry): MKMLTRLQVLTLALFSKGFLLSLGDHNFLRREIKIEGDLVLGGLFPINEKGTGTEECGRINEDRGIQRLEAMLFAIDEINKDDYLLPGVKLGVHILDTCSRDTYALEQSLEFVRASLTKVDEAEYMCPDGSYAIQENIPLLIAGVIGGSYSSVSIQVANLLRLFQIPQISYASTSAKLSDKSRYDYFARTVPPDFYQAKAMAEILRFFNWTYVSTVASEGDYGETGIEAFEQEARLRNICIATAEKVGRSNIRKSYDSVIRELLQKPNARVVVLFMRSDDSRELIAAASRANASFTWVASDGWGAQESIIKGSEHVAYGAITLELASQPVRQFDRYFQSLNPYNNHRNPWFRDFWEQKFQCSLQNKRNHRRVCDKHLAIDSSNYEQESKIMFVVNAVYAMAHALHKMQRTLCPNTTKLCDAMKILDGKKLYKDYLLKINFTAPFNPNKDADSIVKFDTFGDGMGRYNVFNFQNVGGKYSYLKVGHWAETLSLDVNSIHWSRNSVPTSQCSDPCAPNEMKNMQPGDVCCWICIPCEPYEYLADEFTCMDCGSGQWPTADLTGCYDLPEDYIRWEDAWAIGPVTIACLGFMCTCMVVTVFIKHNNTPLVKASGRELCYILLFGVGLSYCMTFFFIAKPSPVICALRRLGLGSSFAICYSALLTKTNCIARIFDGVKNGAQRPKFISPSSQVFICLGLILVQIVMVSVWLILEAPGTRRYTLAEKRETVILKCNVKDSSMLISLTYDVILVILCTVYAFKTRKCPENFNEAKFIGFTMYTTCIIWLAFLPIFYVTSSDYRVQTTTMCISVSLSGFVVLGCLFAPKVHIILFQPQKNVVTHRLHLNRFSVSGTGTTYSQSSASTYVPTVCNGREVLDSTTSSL
T5 sequence (P41594 whole entry): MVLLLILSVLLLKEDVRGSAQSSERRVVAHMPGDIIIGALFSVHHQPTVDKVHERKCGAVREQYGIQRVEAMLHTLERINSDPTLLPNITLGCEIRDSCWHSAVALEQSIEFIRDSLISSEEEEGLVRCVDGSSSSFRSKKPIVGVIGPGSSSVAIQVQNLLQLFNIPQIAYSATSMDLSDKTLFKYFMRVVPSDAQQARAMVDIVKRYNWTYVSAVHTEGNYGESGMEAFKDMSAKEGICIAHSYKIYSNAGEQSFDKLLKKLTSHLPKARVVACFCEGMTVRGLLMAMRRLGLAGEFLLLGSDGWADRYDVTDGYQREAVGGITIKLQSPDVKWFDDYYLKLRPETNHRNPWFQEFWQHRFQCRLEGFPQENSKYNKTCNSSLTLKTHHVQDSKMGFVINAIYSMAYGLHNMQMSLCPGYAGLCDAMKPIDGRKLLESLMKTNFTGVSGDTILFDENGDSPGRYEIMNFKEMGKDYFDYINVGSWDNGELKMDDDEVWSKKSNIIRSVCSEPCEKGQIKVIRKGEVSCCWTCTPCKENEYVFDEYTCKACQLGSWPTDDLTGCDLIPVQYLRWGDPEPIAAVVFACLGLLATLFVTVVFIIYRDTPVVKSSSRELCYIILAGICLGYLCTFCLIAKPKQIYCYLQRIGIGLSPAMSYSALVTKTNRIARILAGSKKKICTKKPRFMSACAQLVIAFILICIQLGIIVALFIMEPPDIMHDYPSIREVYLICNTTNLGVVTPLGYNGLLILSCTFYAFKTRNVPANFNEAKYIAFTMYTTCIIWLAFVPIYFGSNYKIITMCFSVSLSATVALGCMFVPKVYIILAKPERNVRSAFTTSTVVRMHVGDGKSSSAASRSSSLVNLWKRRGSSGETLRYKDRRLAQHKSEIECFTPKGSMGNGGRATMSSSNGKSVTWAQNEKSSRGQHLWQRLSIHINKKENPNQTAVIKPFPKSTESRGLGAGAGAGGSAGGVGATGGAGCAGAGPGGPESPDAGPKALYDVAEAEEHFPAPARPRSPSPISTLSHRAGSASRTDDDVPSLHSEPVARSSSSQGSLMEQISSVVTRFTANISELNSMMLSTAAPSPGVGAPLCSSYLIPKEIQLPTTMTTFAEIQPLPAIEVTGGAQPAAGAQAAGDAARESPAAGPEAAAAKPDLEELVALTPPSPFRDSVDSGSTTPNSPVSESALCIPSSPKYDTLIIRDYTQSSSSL
T2 sequence (Q13255 whole entry): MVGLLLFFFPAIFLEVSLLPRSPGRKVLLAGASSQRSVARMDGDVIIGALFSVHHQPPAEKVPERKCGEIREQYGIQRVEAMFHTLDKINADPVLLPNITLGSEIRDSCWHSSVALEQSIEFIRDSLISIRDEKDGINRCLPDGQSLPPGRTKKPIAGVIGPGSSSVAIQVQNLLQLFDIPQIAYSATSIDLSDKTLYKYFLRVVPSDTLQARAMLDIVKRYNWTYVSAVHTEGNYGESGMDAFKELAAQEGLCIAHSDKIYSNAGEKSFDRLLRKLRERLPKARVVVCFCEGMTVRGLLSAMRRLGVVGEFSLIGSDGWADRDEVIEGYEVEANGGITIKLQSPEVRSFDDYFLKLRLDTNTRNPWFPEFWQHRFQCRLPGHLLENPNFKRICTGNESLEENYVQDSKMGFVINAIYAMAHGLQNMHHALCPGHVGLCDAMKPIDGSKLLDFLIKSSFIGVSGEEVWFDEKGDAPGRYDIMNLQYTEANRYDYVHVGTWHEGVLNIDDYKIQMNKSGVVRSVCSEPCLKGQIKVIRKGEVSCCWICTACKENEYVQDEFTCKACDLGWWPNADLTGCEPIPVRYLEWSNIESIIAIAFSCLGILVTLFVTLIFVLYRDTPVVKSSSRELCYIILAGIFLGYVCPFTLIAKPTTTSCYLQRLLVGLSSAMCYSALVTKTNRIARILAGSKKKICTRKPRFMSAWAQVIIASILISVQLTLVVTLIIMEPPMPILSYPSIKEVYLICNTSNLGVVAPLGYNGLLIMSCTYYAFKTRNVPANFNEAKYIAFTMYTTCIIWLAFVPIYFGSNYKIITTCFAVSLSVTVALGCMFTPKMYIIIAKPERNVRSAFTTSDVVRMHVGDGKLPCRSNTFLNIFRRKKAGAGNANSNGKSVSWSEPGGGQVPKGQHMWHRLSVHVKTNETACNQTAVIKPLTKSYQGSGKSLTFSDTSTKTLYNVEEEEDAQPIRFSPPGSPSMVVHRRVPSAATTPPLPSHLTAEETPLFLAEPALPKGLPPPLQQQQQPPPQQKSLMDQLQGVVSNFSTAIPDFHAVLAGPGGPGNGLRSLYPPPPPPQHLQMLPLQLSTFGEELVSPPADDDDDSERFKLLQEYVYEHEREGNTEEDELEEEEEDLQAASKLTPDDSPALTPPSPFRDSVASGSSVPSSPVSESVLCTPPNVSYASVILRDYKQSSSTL

For `COc1cc(F)cc2c(N3CCN(c4ccccc4F)CC3)c(C#N)nnc12`, the EC50 [2] was 360 nM and the “K(p,uu,brain)” value [3] was 1.9.

In the case of `COc1cc(C(F)(F)F)cc2c(N3CCN4c5ccccc5OC[C@H]4C3)c(C#N)nnc12`, the EC50 [4] is reported as > 30000 nM and the EC50 [2] is reported as 340 nM.

For `COc1cc(F)cc2c(N3CCN(c4ccccc4OC4CC4)CC3)c(C#N)nnc12`, the Activity [5] was “inactive” and the EC50 [2] was 310 nM.

For `COc1cc(F)cc2c(N3CCN(c4ccccc4OC(C)C)CC3)c(C#N)nnc12`, the Activity [5] was “inactive” and the EC50 [2] was 260 nM.

In the case of `COc1cc(F)cc2c(N3CCN4c5c(F)cccc5OC[C@@H]4C3)c(C#N)nnc12`, the fraction unbound [6] is reported as 0.08, the inhibition [7] is reported as 95% and the Activity [5] is reported as “inactive”. For the same molecule, the Fu [8] was 0.024, the EC50 [9] was > 30000 nM and the EC50 [10] was > 30000 nM. For the same molecule, the fraction unbound [11] was 0.3, the EC50 [12] was > 30000 nM and the EC50 [13] was > 30000 nM. For the same molecule, the EC50 [14] was > 30000 nM, the Activity [15] was “inactive” and the fraction unbound [16] was 0.01. For the same molecule, the Activity [17] was “inactive”, the Activity [18] was “inactive” and the EC50 [19] was > 30000 nM.

`COC(=O)c1ccc(-n2c(C)cc(C(=O)CSc3ccc(NC(C)=O)cc3)c2C)cc1` showed an EC50 [1] of 900 nM.

`COc1cc(F)cc2c(N3CCN4c5ccccc5OC[C@H]4C3)c(C#N)nnc12` gave an Activity [20] of 68%, an EC50 [4] of 190 nM and a pEC50 [4] of 6.72. The EC50 [2] was 43 nM.

In the case of `COc1cc(C(F)(F)F)cc2c(N3CCN4c5ccccc5OC[C@@H]4C3)c(C#N)nnc12`, the EC50 [4] is reported as > 30000 nM and the EC50 [2] is reported as > 30000 nM.

Work on `COc1cc(F)cc2c(N3CCN4c5ccccc5NCC4C3)c(C#N)nnc12` (stereo not given) yielded an Activity [20] of 68%, an EC50 [4] of 620 nM and a pEC50 [4] of 6.21. The EC50 [2] was 120 nM.

For `COc1cc(F)cc2c(N3CCN4c5ccccc5OC[C@@H]4C3)c(C#N)nnc12`, the EC50 [4] was > 30000 nM and the EC50 [2] was 260 nM.

For `COc1cc(F)cc2c(N3CCN4c5c(F)cccc5OCC4C3)c(C#N)nnc12` (stereo not given), the Activity [20] was 48% and the EC50 [4] was 120 nM.

For `[2H]C([2H])([2H])Oc1cc(F)cc2c(N3CCN(c4ccccc4F)CC3)c(C#N)cnc12`, the EC50 [21] was > 10000 nM, the EC50 [22] was > 10000 nM and the EC50 [23] was > 10000 nM. The Kp uu ([3]; read-out: K(p,uu,brain)) was 0.9, the EC50 [24] was > 10000 nM and the EC50 [1] was > 10000 nM.

For `COc1cc(F)cc2c(N3CCN4c5ccccc5NC(=O)C4C3)c(C#N)nnc12` (stereo not given), the EC50 [4] was > 30000 nM and the EC50 [2] was 1200 nM.

In the case of `COc1ccccc1N1CCN(c2c(C#N)nnc3c(OC)cc(F)cc23)CC1`, the Activity [5] is reported as “inactive” and the EC50 [2] is reported as 820 nM.
